# pIC50: −log10 of the molar value. Numbered stars: 1 amine (or outer) side, 2 acyl side, 3 side chain; on linkers, the order of the positions; unused ones are H or OH. Bridge positions count the residues as written; N and C are the ends. Square brackets hold non-standard residues; d marks the D form. Peptide text beside a SMILES is read from it. * marks the point of attachment. hPhe(3-Cl-4-CF3) = N[C@@H](CCc1ccc(C(F)(F)F)c(Cl)c1)C(=O)O; hPhe(3-F,4-CF3) = N[C@@H](CCc1ccc(C(F)(F)F)c(F)c1)C(=O)O; X71 = O=C([C@H](CCc1ccc(C(F)(F)F)cc1F)N[*:1])[*:2]; hPhe(4-CF3) = N[C@@H](CCc1ccc(C(F)(F)F)cc1)C(=O)O; 3Oxa8azabicyclo(3.2.1)octane = C1CC2COCC1N2*; NEtPhe(4-Me) = CCN[C@@H](Cc1ccc(C)cc1)C(=O)O; NMePhe(4-Cl) = CN[C@@H](Cc1ccc(Cl)cc1)C(=O)O; NMePhe(4-Me) = CN[C@@H](Cc1ccc(C)cc1)C(=O)O; NMePhe(2-Cl) = CN[C@@H](Cc1ccccc1Cl)C(=O)O; hPhe(4-Cl) = N[C@@H](CCc1ccc(Cl)cc1)C(=O)O; NMedβ3hAla = C[C@H](CC(=O)[*:2])N(C)[*:1]; NMeAla(cPent) = CN[C@@H](CC1CCCC1)C(=O)O; NMeNva(5,5-F2) = CN[C@@H](CCC(F)F)C(=O)O; NMeGly(cPent) = CN[C@H](C(=O)O)C1CCCC1; mXylylene = c1cc(C[*:1])cc(C[*:2])c1; NMeCha = CN[C@@H](CC1CCCCC1)C(=O)O; cisHyp = O=C(O)[C@@H]1C[C@H](O)CN1; NEtLeu = CCN[C@@H](CC(C)C)C(=O)O; NMeChg = CN[C@H](C(=O)O)C1CCCCC1; NMeF = CN[C@@H](Cc1ccccc1)C(=O)O; NMeI = CC[C@H](C)[C@H](NC)C(=O)O; N(CH2CH2)2CF2 = FC1(F)CCN(*)CC1; Piperidide(4-Me) = CC1CCN(*)CC1; NMeD = CN[C@@H](CC(=O)O)C(=O)O; NMeL = CN[C@@H](CC(C)C)C(=O)O; NMeV = CN[C@H](C(=O)O)C(C)C; d(β3hA) = C[C@@H](N)CC(=O)O; NMeS = CN[C@@H](CO)C(=O)O; NMeA = CN[C@@H](C)C(=O)O; Piperidide = C1CCN(*)CC1; Pyrrolidide = C1CCN(*)C1; dNMeA = CN[C@H](C)C(=O)O; Ac5c = NC1(C(=O)O)CCCC1; Aze = O=C(O)[C@@H]1CCN1; Aib = CC(C)(N)C(=O)O; Sar = CNCC(=O)O; Propyl = CCC*
# Biological target: protein-protein interaction between Kras and SOS1 (biotin-tagged human Kras loaded with GDP, His-tagged human SOS1) (Homo sapiens (Human), UniProt P01116, G12D)
# Experiment: Protein-protein interaction inhibition between Kras and SOS1 (KrasG12D-SOS PPI) using AlphaScreen;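 further: kras produced in E. coli, Ni-coupled donor beads and streptavidin acceptor beads, excitation 680 nm with emission detected at 520–620 nm via singlet oxygen transfer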
# Format: biochemical
# Details: AlphaScreen; biotin-tagged human Kras loaded with GDP, His-tagged human SOS1; read-out: KRAS G12D-SOS PPI IC50
row,Structure (SMILES),pIC50
1,CC[C@H](C)[C@@H]1NC(=O)[C@H](C)N(C)C(=O)C[C@@H](C(=O)N2CCCC2)N(C)C(=O)[C@H](C(C)C)N(C)C(=O)C2(CCCC2)NC(=O)[C@H](Cc2ccccc2Cl)N(C)C(=O)[C@H](CCc2ccc(C(F)(F)F)c(Cl)c2)NC(=O)CN(C)C(=O)[C@H](CC2CCCCC2)N(C)C(=O)CN(C)C(=O)CN(C)C1=O [Compound 2008] ([NMeA]I[Sar][Sar][NMeCha][Sar][hPhe(3-Cl-4-CF3)][NMePhe(2-Cl)][Ac5c][NMeV][NMeD]-Pyrrolidide; lactam N-11),6.85
2,CC[C@H](C)[C@@H]1NC(=O)[C@H](C)N(C)C(=O)C[C@@H](C)NC(=O)[C@H](CC(C)C)N(C)C(=O)[C@H](Cc2ccccc2)N(C)C(=O)[C@@H]2C[C@H](O)CN2C(=O)[C@H](CCc2ccc(C(F)(F)F)cc2)NC(=O)CN(C)C(=O)[C@H](Cc2ccc(Cl)cc2)N(C)C(=O)CN(C)C(=O)CN(C)C1=O [Compound 1373] (cyclo(I[Sar][Sar][NMePhe(4-Cl)][Sar][hPhe(4-CF3)][cisHyp][NMeF][NMeL][d(β3hA)][NMeA])),8.11
3,CC[C@H](C)[C@@H]1NC(=O)[C@H](CC(C)C)N(C)C(=O)C[C@@H](C(=O)N(C)C)N(C)C(=O)[C@H]([C@@H](C)CC)N(C)C(=O)CNC(=O)[C@@H]2CCCN2C(=O)[C@H](CCc2ccc(C(F)(F)F)c(Cl)c2)NC(=O)CN(C)C(=O)[C@H](Cc2ccc(C)cc2)N(C)C(=O)[C@@H]2CCN2C(=O)[C@H](C)N(C)C1=O [Compound 828] ([NMeL]I[NMeA][Aze][NMePhe(4-Me)][Sar][hPhe(3-Cl-4-CF3)]PG[NMeI][NMeD]-NMe2; lactam N-11),7.40
4,"CC[C@H](C)[C@@H]1NC(=O)[C@H](CC(C)C)N(C)C(=O)C[C@@H](C(=O)N2CCCCC2)N(C)C(=O)[C@H](C2CCCCC2)N(C)C(=O)C2(CCCC2)NC(=O)[C@@H]2C[C@H](O)CN2C(=O)[C@H](CCc2ccc(C(F)(F)F)c(Cl)c2)NC(=O)CN(C)C(=O)[C@H](CC2CCCCC2)N(C)C(=O)CN(C)C(=O)CN(C)C1=O [Compound 1374, (3S,9S,18S,21S,25S,28S,34S,36S)-3-[2-[3-chloro-4-(trifluoromethyl)phenyl]ethyl]-28-cyclohexyl-9-(cyclohexylmethyl)-36-hydroxy-21-isobutyl-7,10,13,16,22,26,29-heptamethyl-18-[(1S)-1-methylpropyl]-25-(piperidine-1-carbonyl)spiro[1,4,7,10,13,16,19,22,26,29,32-undecazabicyclo[32.3.0]heptatriacontane-31,1′-cyclopentane]-2,5,8,11,14,17,20,23,27,30,33-undecone] ([NMeL]I[Sar][Sar][NMeCha][Sar][hPhe(3-Cl-4-CF3)][cisHyp][Ac5c][NMeChg][NMeD]-Piperidide; lactam N-11)",9.27
5,CC[C@H](C)[C@@H]1NC(=O)[C@H](C)N(C)C(=O)C[C@@H](C)NC(=O)[C@H](CC(C)C)N(C)C(=O)C(C)(C)NC(=O)[C@H](CC(C)C)N(C)C(=O)[C@H](CCc2ccc(Cl)cc2)NC(=O)CN(C)C(=O)[C@H](Cc2ccc(Cl)cc2)N(C)C(=O)CN(C)C(=O)CN(C)C1=O [Compound 19] (cyclo([Aib][NMeL][d(β3hA)][NMeA]I[Sar][Sar][NMePhe(4-Cl)][Sar][hPhe(4-Cl)][NMeL])),7.30
6,"CC[C@H](C)[C@@H]1NC(=O)[C@H](C)N(C)C(=O)C[C@@H](C(=O)N2CCCC2)NC(=O)[C@H](CC(C)C)N(C)C(=O)[C@H](Cc2ccccc2)N(C)C(=O)[C@@H]2CCCN2C(=O)[C@H](CCc2ccc(C(F)(F)F)cc2F)NC(=O)CN(C)C(=O)[C@H](Cc2ccc(Cl)cc2)N(C)C(=O)CN(C)C(=O)CN(C)C1=O [Compound 2096, (3S,9S,18S,21S,25S,28S,31S,34S)-31-benzyl-9-[(4-chlorophenyl)methyl]-3-[2-[2-fluoro-4-(trifluoromethyl)phenyl]ethyl]-28-isobutyl-7,10,13,16,21,22,29,32-octamethyl-18-[(1S)-1-methylpropyl]-25-(pyrrolidine-1-carbonyl)-1,4,7,10,13,16,19,22,26,29,32-undecazabicyclo[32.3.0]heptatriacontane-2,5,8,11,14,17,20,23,27,30,33-undecone] ([NMeA]I[Sar][Sar][NMePhe(4-Cl)][Sar][X71]P[NMeF][NMeL]D-Pyrrolidide; lactam N-11)",7.72
7,CC[C@H](C)[C@@H]1NC(=O)[C@H](CC(C)C)N(C)C(=O)C[C@@H](C(=O)N2CCC(C)CC2)NC(=O)[C@H](C(C)C)N(C)C(=O)C2(CCCC2)NC(=O)[C@@H]2CCCN2C(=O)[C@H](CCc2ccc(C(F)(F)F)c(Cl)c2)NC(=O)CN(C)C(=O)[C@H](CC2CCCCC2)N(C)C(=O)[C@@H]2CCN2C(=O)[C@H](C)N(C)C1=O [Compound 1161] ([NMeL]I[NMeA][Aze][NMeCha][Sar][hPhe(3-Cl-4-CF3)]P[Ac5c][NMeV]D-{Piperidide(4-Me)}; lactam N-11),7.22
8,CC[C@H](C)[C@@H]1NC(=O)[C@H](C)N(C)C(=O)C[C@@H](C)N(C)C(=O)[C@H](C(C)C)N(C)C(=O)C2(CCCC2)NC(=O)[C@@H]2CCCN2C(=O)[C@H](CCc2ccc(C(F)(F)F)c(Cl)c2)NC(=O)[C@@H](C)N(C)C(=O)[C@H](CC2CCCCC2)N(C)C(=O)[C@@H]2CCN2C(=O)[C@H](C)N(C)C1=O [Compound 1773] (cyclo([Ac5c][NMeV][NMedβ3hAla][NMeA]I[NMeA][Aze][NMeCha][dNMeA][hPhe(3-Cl-4-CF3)]P)),7.29
9,"CC[C@H](C)[C@@H]1NC(=O)[C@H](CC(C)C)N(C)C(=O)C[C@@H](C(=O)N2CCCCC2)N(C)C(=O)[C@H](CC(C)C)N(C)C(=O)C2(CCCC2)NC(=O)[C@@H]2C[C@H](OCc3cccc(C)c3)CN2C(=O)[C@H](CCc2ccc(C(F)(F)F)c(F)c2)NC(=O)CN(C)C(=O)[C@H](CC2CCCCC2)N(C)C(=O)CN(C)C(=O)CN(C)C1=O [Compound 2141] ([NMeL]I[Sar][Sar][NMeCha][Sar][hPhe(3-F,4-CF3)][cisHyp](mXylylene)[Ac5c][NMeL][NMeD]-Piperidide; lactam N-11)",7.14
10,CCCOC[C@H]1C(=O)N(C)CC(=O)N[C@@H](CCc2ccc(C(F)(F)F)c(Cl)c2)C(=O)N2CCC[C@H]2C(=O)NC2(CCCC2)C(=O)N(C)[C@@H](C2CCCC2)C(=O)N(C)[C@H](C(=O)N2C3CCC2COC3)CC(=O)N(C)[C@@H](CC2CCCC2)C(=O)N[C@@H]([C@@H](C)CC)C(=O)N(C)[C@@H](C)C(=O)N2CC[C@H]2C(=O)N1C [Compound 1251] ([NMeAla(cPent)]I[NMeA][Aze][NMeS](Propyl)[Sar][hPhe(3-Cl-4-CF3)]P[Ac5c][NMeGly(cPent)][NMeD]-{3Oxa8azabicyclo(3.2.1)octane}; lactam N-11),8.59
11,CC[C@H](C)[C@@H]1NC(=O)[C@H](C)N(C)C(=O)C[C@@H](C)NC(=O)[C@H](C2CCCC2)N(C)C(=O)C2(CCCC2)NC(=O)[C@@H]2CCCN2C(=O)[C@H](CCc2ccc(C(F)(F)F)c(Cl)c2)NC(=O)CN(C)C(=O)[C@H](Cc2ccc(C)cc2)N(C)C(=O)CN(C)C(=O)CN(C)C1=O [Compound 1485] (cyclo([Ac5c][NMeGly(cPent)][d(β3hA)][NMeA]I[Sar][Sar][NMePhe(4-Me)][Sar][hPhe(3-Cl-4-CF3)]P)),9.08
12,CC[C@H](C)[C@@H]1NC(=O)[C@H](C)N(C)C(=O)C[C@@H](C)NC(=O)[C@H](CC(C)C)N(C)C(=O)C(C)(C)NC(=O)[C@H](CC(C)C)N(C)C(=O)[C@H](CCc2ccc(C(F)(F)F)cc2)NC(=O)CN(C)C(=O)[C@H](CC2CCCCC2)N(C)C(=O)CN(C)C(=O)CN(C)C1=O [Compound 219] (cyclo([Aib][NMeL][d(β3hA)][NMeA]I[Sar][Sar][NMeCha][Sar][hPhe(4-CF3)][NMeL])),7.14
13,CC[C@H](C)[C@@H]1NC(=O)[C@H](CC(C)C)N(C)C(=O)C[C@@H](C)N(C)C(=O)[C@H](C(C)C)N(C)C(=O)C2(CCCC2)NC(=O)[C@H](CC(=O)N2CCC(F)(F)CC2)N(C)C(=O)[C@H](CCc2ccc(C(F)(F)F)c(Cl)c2)NC(=O)CN(C)C(=O)[C@H](CC2CCCCC2)N(C)C(=O)CN(C)C(=O)CN(C)C1=O [Compound 350] (cyclo([Ac5c][NMeV][NMedβ3hAla][NMeL]I[Sar][Sar][NMeCha][Sar][hPhe(3-Cl-4-CF3)][NMeD](N(CH2CH2)2CF2))),7.19
14,"CC[C@H](C)[C@@H]1NC(=O)[C@H](CC(C)C)N(C)C(=O)C[C@@H](C(=O)N2CCCCC2)N(C)C(=O)[C@H](C2CCCCC2)N(C)C(=O)C2(CCCC2)NC(=O)[C@H](CCC(F)F)N(C)C(=O)[C@H](CCc2ccc(C(F)(F)F)c(Cl)c2)NC(=O)CN(C)C(=O)[C@H](CC2CCCCC2)N(C)C(=O)CN(C)C(=O)CN(C)C1=O [Compound 523] ([NMeL]I[Sar][Sar][NMeCha][Sar][hPhe(3-Cl-4-CF3)][NMeNva(5,5-F2)][Ac5c][NMeChg][NMeD]-Piperidide; lactam N-11)",8.24
15,CC[C@H](C)[C@@H]1NC(=O)[C@H](CC(C)C)N(CC)C(=O)C[C@@H](C(=O)N(C)C)N(C)C(=O)[C@H]([C@@H](C)CC)N(C)C(=O)C2(CCCC2)NC(=O)[C@@H]2CCCN2C(=O)[C@H](CCc2ccc(C(F)(F)F)c(Cl)c2)NC(=O)CN(C)C(=O)[C@H](Cc2ccc(C)cc2)N(C)C(=O)[C@@H]2CCN2C(=O)[C@H](C)NC1=O [Compound 1287] ([NEtLeu]IA[Aze][NMePhe(4-Me)][Sar][hPhe(3-Cl-4-CF3)]P[Ac5c][NMeI][NMeD]-NMe2; lactam N-11),8.96
16,CC[C@H](C)[C@@H]1NC(=O)[C@H](CC(C)C)N(C)C(=O)C[C@@H](C(=O)N2C3CCC2COC3)N(C)C(=O)[C@H](C2CCCC2)N(C)C(=O)C2(CCCC2)NC(=O)[C@@H]2CCCN2C(=O)[C@H](CCc2ccc(C(F)(F)F)c(Cl)c2)NC(=O)CN(C)C(=O)[C@H](Cc2ccc(C)cc2)N(CC)C(=O)[C@@H]2CCN2C(=O)[C@H](C)N(C)C1=O [Compound 1236] ([NMeL]I[NMeA][Aze][NEtPhe(4-Me)][Sar][hPhe(3-Cl-4-CF3)]P[Ac5c][NMeGly(cPent)][NMeD]-{3Oxa8azabicyclo(3.2.1)octane}; lactam N-11),8.14

# Reference: US20240148821A1, “PHARMACEUTICAL USE OF CYCLIC PEPTIDE COMPOUND” (CHUGAI SEIYAKU KABUSHIKI KAISHA, priority 2021, published 2024)
